Assay results reported in patent US20240300959A1, “BALASUBRAMIDE DERIVATIVE AND USE THEREOF IN PREPARATION OF MEDICINE FOR TREATING ACUTE LUNG INJURY” (Guangdong Pharmaceutical University, priority 2023, published 2024).

Legend:
RAW264.7 cells = test: Cytotoxicity test, CCK-8 cell viability of RAW264.7 cells (24 h); assay type: cell-based, mice; conditions: 10 μM, RAW264.7 cell viability
Procedure: RAW264.7 cells were inoculated into a 96-well plate at a density of 1×10^5 per well. When the cell density was 70%-80%, the RAW264.7 cells were pretreated with 10 mM working solutions prepared from 18 balasubramide derivatives at a final concentration of 10 μM for 24 h, and then the cell viability was determined by a CCK-8 method.

[1] = tested on: TNF-α in RAW264.7 macrophages stimulated by lipopolysaccharide; test: TNF-α ELISA in cell supernatant of LPS-stimulated RAW264.7 macrophages; assay type: cell-based, mice; conditions: 10 μM; for activity at 10 µM: Mus musculus, RAW264.7, 2 h, 3 h pretreatment, LPS 100 ng/mL 2 h, RAW264.7, read-out: Percentage of TNF-α in a model group (%)
Procedure: RAW264.7 cells were inoculated into a 96-well plate at a density of 1×10^5 per well. When the cell density was 70%-80%, 18 balasubramide derivatives were prepared into 10 mM working solutions with DMSO, respectively, and then used to pretreat mononuclear macrophages RAW264.7 of mice at a final concentration of 10 μM. After 3 h, lipopolysaccharide (LPS, 100 ng/mL) was added into all wells for action for 2 h except for a control group. A supernatant was collected for later use, and the expression level of an inflammatory factor TNF-α in the cell supernatant was detected according to an operation instruction of a commercial ELISA kit.
RAW264.7 cells were inoculated into a 96-well plate at a density of 1×10^5 per well. When the cell density was 70%-80%, the RAW264.7 cells were pretreated with (+)3C-20 ([…]). After 3 h, lipopolysaccharide (LPS, 100 ng/mL) was added into all wells for action for 2 h except for a control group. The expression level of an inflammatory factor TNF-α in a cell supernatant was detected according to an operation instruction of a commercial ELISA kit, and the cell viability at different administration concentrations of (+)3C-20 was determined according to an operation instruction of a CCK-8 kit.

[2] = tested on: mice with acute lung injury caused by intratracheal instillation of lipopolysaccharide; test: Acute lung injury caused by lung exposure to bacterial endotoxin (intratracheal instillation of LPS); assay type: in vivo, ICR mice
Procedure: Grouping, administration and modeling of animals: Male ICR mice were used as experimental animals, which were randomly divided into a control group, a model group, a positive administration group and administration groups according to the body weight. The control group and the model group were administered with a solvent by intraperitoneal injection (the solvent was prepared from DMSO, Kolliphor HS15 and Saline at a ratio of 1:2:7), the positive administration group was administered with 5 mg/kg dexamethasone by intraperitoneal injection, and the administration groups were administered with (+)3C-20 at a concentration of 10 mg/kg and 50 mg/kg, respectively, by intraperitoneal injection. The dexamethasone and the (+)3C-20 were dissolved in the above solvent and were clear and transparent. The administration was continued for 3 days. 2 h after the last administration, the mice were anesthetized with 2.5% isoflurane, necks were disinfected, cortices of the necks were cut, and tracheae were separated. All other groups were administered with 50 μL of 10 mg/mL LPS (LPS dissolved in Saline) at a dose of 20 mg/kg by instillation while the control group was administered with 50 μL of Saline by intratracheal instillation (it.), and the cortices were sutured. 6 h after the instillation of LPS, the mice were sacrificed, and serum and lung tissues were taken for later use. Body weight and lung index: The mice were weighed and randomly divided on day 1 and continuously weighed for 3 days before administration. 2 h after the last administration, the mice were administered with 50 μL of […] LPS by intratracheal instillation. 6 h later, the mice were dissected, and the lungs were taken and weighed.
On day 3, 6 h after the intratracheal instillation of LPS, a part of the mice were subjected to perfusion with PBS and treated with paraformaldehyde to fix the right lobe of the lungs, another part of the mice were dissected to obtain lungs, and the lungs were frozen with liquid nitrogen for later use. The fixed right lungs were stained with hematoxylin-eosin (H&E) after dehydration, paraffin embedding and sectioning. 40 mg of the frozen lungs were cut, 300 μL of an RIPA lysis buffer was added thereto and homogenized by starting for 45 s and stopping for 15 s at a frequency of 60 Hz in 4 cycles for full lysis, and then centrifuged at 12,000 rpm at 4° C. A supernatant was taken, the protein concentration was calibrated and adjusted with a BCA protein assay kit, and then the level of an inflammatory factor TNF-α in lung tissue homogenates of various groups was detected by a commercial TNF-α ELISA kit. Results are shown in Table 10, FIG. 10-1 and FIG. 10-2.
A small amount of frozen lung tissues were taken, a Trizol lysis reagent was added thereto and fully ground, RNA was extracted according to an operation instruction of an RNA extraction kit, and the expression of inflammation related genes in the lung tissues was detected by an RT-PCR technology. Experimental results are shown in Table 11, FIG. 11-1 and FIG. 11-2.

[3] = tested on: mice with sepsis and lung injury caused by intraperitoneal injection of lipopolysaccharide; test: Acute lung injury caused by sepsis (intraperitoneal injection of lipopolysaccharide); assay type: in vivo, ICR mice
Procedure: Administration and grouping of animals: Male ICR mice were used as experimental animals, which were randomly divided into a control group, a model group, a positive administration group and administration groups according to the body weight. The control group and the model group were administered with a solvent by intraperitoneal injection (the solvent was prepared from DMSO, Kolliphor HS15 and Saline at a ratio of 1:2:7), the positive administration group was administered with 5 mg/kg dexamethasone (DEX) by intraperitoneal injection, and the administration groups were administered with (+)3C-20 at a concentration of 10 mg/kg and 50 mg/kg, respectively, by intraperitoneal injection. The dexamethasone and the (+)3C-20 were dissolved in the above solvent and were clear and transparent. The administration was continued for 3 days. 2 h after the last administration, all the other groups were administered with LPS (10 mg/kg) by intraperitoneal injection while the control group was administered with an equal volume of normal saline by intraperitoneal injection. Body weight and lung index: The mice were weighed and randomly divided on day 1 and continuously weighed for 3 days before administration, and growth conditions of the mice were measured by statistics. The mice were administered with LPS by intraperitoneal injection 2 h after administration on day 3, then the mice were dissected 6 h later, and the lungs were taken, weighed and recorded.
On day 3, 6 h after the intraperitoneal injection of LPS, whole blood was collected from eye sockets and then subjected to centrifugation to prepare serum, and the serum was frozen at −80° C. The lungs were subjected to perfusion with PBS and fixed by paraformaldehyde, and the fixed lungs were stained with hematoxylin-eosin (H&E) after dehydration, paraffin embedding and sectioning. The serum was tested by a commercial TNF-α ELISA kit. Histopathological results and data statistics are shown in FIG. 7-1, FIG. 7-2 and Table 7.
A small amount of frozen lung tissues were taken and fully ground, and the expression of inflammation related genes in the lung tissues was detected by an RT-PCR technology according to an operation instruction of an RNA extraction kit.

[4] = 5 mg/kg i.p., lung tissue RT-PCR, intratracheal LPS
[5] = 5 mg/kg intraperitoneal, intratracheal LPS model, in g (unit assumed)
[6] = 5 mg/kg i.p., lung tissue RT-PCR, i.p. LPS
[7] = 5 mg/kg intraperitoneal, i.p. LPS sepsis model, in g (unit assumed)

CC(C)(C)OC(=O)N[C@H](CC(=O)O[C@@H]1C(=O)NCCc2c([nH]c3ccccc23)[C@H]1c1ccc(C(F)(F)F)cc1)c1ccc(C(F)(F)F)cc1 [(+)-c5]
Percentage of CCK-8 in a model group (%) (RAW264.7 cells): 110.66 ± 0.55%
activity at 10 µM [1]: 71.77 ± 0.56%

CCOc1ccc2[nH]c3c(c2c1)CCNC(=O)[C@@H](OC(=O)CCc1ccc(C(F)(F)F)cc1)[C@@H]3c1ccc(C(F)(F)F)cc1 [(+)-D7a]
Percentage of CCK-8 in a model group (%) (RAW264.7 cells): 106.69 ± 1.21%
activity at 10 µM [1]: 97.7 ± 1.5%

O=C1NCCc2c([nH]c3ccc(Br)cc23)[C@@H](c2ccccc2)[C@@H]1O [B001]
Percentage of CCK-8 in a model group (%) (RAW264.7 cells): 108.8 ± 2.72%
activity at 10 µM [1]: 71.9 ± 3.5%

COc1ccc2[nH]c3c(c2c1)CCNC(=O)[C@@H](OC(=O)CCc1ccc(C(F)(F)F)cc1)[C@@H]3c1ccc(C(F)(F)F)cc1 [(+)-B3c]
Percentage of CCK-8 in a model group (%) (RAW264.7 cells): 96.16 ± 4.12%
activity at 10 µM [1]: 84.5%

O=C(CCc1ccc(C(F)(F)F)cc1)O[C@@H]1C(=O)NCCc2c([nH]c3ccccc23)[C@H]1c1ccc(C(F)(F)F)cc1 (racemic) [(±)-3C-20]
anti-inflammatory activity (inhibition of expression of TNF-α in macrophages), in words ([1]; RAW264.7, LPS): better anti-inflammatory activity than other derivatives

Cn1c2c(c3ccccc31)CCNC(=O)[C@@H](OC(=O)CCc1ccc(C(F)(F)F)cc1)[C@@H]2c1ccc(C(F)(F)F)cc1 [(+)-c1]
Percentage of CCK-8 in a model group (%) (RAW264.7 cells): 105.02 ± 2.84%
activity at 10 µM [1]: 83.4%

O=C(CCc1ccc(C(F)(F)F)cc1)O[C@@H]1C(=O)NCCc2c([nH]c3ccc(F)cc23)[C@H]1c1ccc(C(F)(F)F)cc1 [(+)-B3d]
Percentage of CCK-8 in a model group (%) (RAW264.7 cells): 90.33 ± 5.86%
activity at 10 µM [1]: 101 ± 4.46%

O=C1NCCc2c([nH]c3ccccc23)[C@@H](c2ccc(C(F)(F)F)cc2)[C@@H]1O [(+)-3C]
Percentage of CCK-8 in a model group (%) (RAW264.7 cells): 105.39 ± 4.26%
activity at 10 µM [1]: 86.4 ± 3.06%

O=C(CCc1ccc(C(F)(F)F)cc1)O[C@@H]1C(=O)NCCc2c([nH]c3cccc(F)c23)[C@H]1c1ccc(C(F)(F)F)cc1 [(+)-B3a]
Percentage of CCK-8 in a model group (%) (RAW264.7 cells): 103.22 ± 1.79%
activity at 10 µM [1]: 91.2 ± 3.03%

O=C(CCc1ccc(C(F)(F)F)cc1)O[C@@H]1C(=O)NCCc2c([nH]c3ccc(OC(=O)c4ccc([N+](=O)[O-])cc4)cc23)[C@H]1c1ccc(C(F)(F)F)cc1 [(+)-D7c]
Percentage of CCK-8 in a model group (%) (RAW264.7 cells): 109.17 ± 0.16%
activity at 10 µM [1]: 74.5 ± 3.55%

CCn1c2c(c3ccccc31)CCNC(=O)[C@@H](OC(=O)CCc1ccc(C(F)(F)F)cc1)[C@@H]2c1ccc(C(F)(F)F)cc1 [(+)-c2]
Percentage of CCK-8 in a model group (%) (RAW264.7 cells): 102.17 ± 2.74%
activity at 10 µM [1]: 101 ± 1.21%

CCCn1c2c(c3ccccc31)CCNC(=O)[C@@H](OC(=O)CCc1ccc(C(F)(F)F)cc1)[C@@H]2c1ccc(C(F)(F)F)cc1 [(+)-c3]
Percentage of CCK-8 in a model group (%) (RAW264.7 cells): 110.41 ± 0.54%
activity at 10 µM [1]: 81.8 ± 1.11%

Cc1cccc2c3c([nH]c12)[C@@H](c1ccc(C(F)(F)F)cc1)[C@H](OC(=O)CCc1ccc(C(F)(F)F)cc1)C(=O)NCC3 [(+)-B3g]
Percentage of CCK-8 in a model group (%) (RAW264.7 cells): 101.49 ± 2.57%
activity at 10 µM [1]: 78.5%

C=CCn1c2c(c3ccccc31)CCNC(=O)[C@@H](OC(=O)CCc1ccc(C(F)(F)F)cc1)[C@@H]2c1ccc(C(F)(F)F)cc1 [(+)-c4]
Percentage of CCK-8 in a model group (%) (RAW264.7 cells): 110.28 ± 1.56%
activity at 10 µM [1]: 96.1 ± 1.48%

C[C@@H]1C[C@H]2[C@@H]3CCC4=CC(=O)C=C[C@]4(C)[C@@]3(F)[C@@H](O)C[C@]2(C)[C@@]1(O)C(=O)CO [Dexamethasone, dexamethasone, reference compound]
Content of TNF-α in a lung tissue homogenate (% of Model) ([2]; 5 mg/kg i.p., 6 h after intratracheal LPS): 54.882 ± 6.836 % of Model
Area percentage of alveolar cells (%) ([2]; 5 mg/kg i.p., 6 h after intratracheal LPS, H&E lung sections): 34.322 ± 2.452 %
Change multiple of COX-2 [2, 4]: 2.75 ± 0.24
Change multiple of IL-1β [2, 4]: 12.38 ± 1.28
Change multiple of IL-6 [2, 4]: 14.75 ± 2.71
Change multiple of TNF-α [2, 4]: 18.63 ± 2.26
Change multiple of iNOS [2, 4]: 10.02 ± 1.78
Lung index (%) ([2]; 5 mg/kg intraperitoneal 3 days, 6 h after intratracheal LPS): 0.591 ± 0.008 %
Body weight (Day 1) [2, 5]: 27.51 ± 0.11
Body weight (Day 2) [2, 5]: 28.75 ± 0.17
Body weight (Day 3) [2, 5]: 29.48 ± 0.17
Content of TNF-α in serum (% of Model) ([3]; 5 mg/kg i.p., 6 h after i.p. LPS): 40.09 ± 2.26 % of Model
Area percentage of alveolar cells (%) ([3]; 5 mg/kg i.p., 6 h after i.p. LPS, H&E lung sections): 32.2 ± 0.95 %
Change multiple of IL-1β [3, 6]: 8.65 ± 1.04
Change multiple of IL-6 [3, 6]: 40.56 ± 7.55
Change multiple of TNF-α [3, 6]: 6.09 ± 0.82
Change multiple of iNOS [3, 6]: 2.61 ± 0.39
Lung index (%) ([3]; 5 mg/kg intraperitoneal 3 days, 6 h after i.p. LPS 10 mg/kg): 0.649 ± 0.01 %
Body weight (Day 1) [3, 7]: 25.11 ± 0.52
Body weight (Day 2) [3, 7]: 26.23 ± 0.38
Body weight (Day 3) [3, 7]: 26.97 ± 0.45

O=C(CCc1ccc(C(F)(F)F)cc1)O[C@@H]1C(=O)NCCc2c([nH]c3ccc(Br)cc23)[C@H]1c1ccc(C(F)(F)F)cc1 [(+)-B3e]
Percentage of CCK-8 in a model group (%) (RAW264.7 cells): 95.66 ± 4.02%
activity at 10 µM [1]: 76.2%

O=C(CCc1ccc(C(F)(F)F)cc1)O[C@@H]1C(=O)NCCc2c([nH]c3ccc(OCc4ccccc4)cc23)[C@H]1c1ccc(C(F)(F)F)cc1 [(+)-B3h]
Percentage of CCK-8 in a model group (%) (RAW264.7 cells): 99.75 ± 1.27%
activity at 10 µM [1]: 66.1%

O=C(CCc1ccc(C(F)(F)F)cc1)O[C@@H]1C(=O)NCCc2c([nH]c3cc(Cl)ccc23)[C@H]1c1ccc(C(F)(F)F)cc1 [(+)-B3f]
Percentage of CCK-8 in a model group (%) (RAW264.7 cells): 96.96 ± 3.85%
activity at 10 µM [1]: 90.2 ± 2.92%
